The results in this text go back to patent US20240254103A9, “NOVEL PYRIMIDINE DERIVATIVE, AND COMPOSITION FOR PREVENTING OR TREATING NEURODEGENERATIVE DISEASES AND CANCER, COMPRISING SAME” (WHAN IN PHARMACEUTICAL CO., LTD., priority 2020, published 2024).

The target of experiment [1] is T1, mutant LRRK2 (G2019S) (Homo sapiens, UniProt Q5S007, G2019S).
T1 construct: DNA tag for qPCR detection (not a peptide; the protein part that carries it is not described); made in house; host or cells: HEK 293 cells (the same paragraph also describes T7 phage grown in E. coli BL21)
The experiment can be described thus: Inhibitory activity against LRRK2: competition binding to ligand-affinity beads, DNA-tagged kinase quantitated by qPCR. As to conditions: 100 nM compound; % of ctrl; read-out: Remaining kinase activity(%) at 100 nM LRRK2(G2019Smutant). In short, it runs like this: (§1)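 Human LRRK2 H970–E2527, wild type or G2019S, was expressed as DNA-tagged kinase (T7 phage in E. coli or HEK293) and competed for 1 h against a biotinylated ligand on streptavidin beads. Bound kinase was eluted with 0.5 µM free ligand and quantified by qPCR. Values are % of control at 100 nM (both forms) and at 10 and 50 nM (wild type).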

Experiment [2] deals with T2, wild-type LRRK2 (Homo sapiens, UniProt Q5S007).
T2 construct: DNA tag for qPCR detection (not a peptide; the protein part that carries it is not described); made in house; host or cells: HEK 293 cells (the same paragraph also describes T7 phage grown in E. coli BL21)
Described as above. As to conditions: 100 nM compound; % of ctrl; read-out: Remaining kinase activity(%) at 100 nM LRRK2(WT). An outline of the steps:
as §1

The structures appear in SMILES notation. Bounds are passed on as bounds.

T2 sequence (Q5S007 970-2527): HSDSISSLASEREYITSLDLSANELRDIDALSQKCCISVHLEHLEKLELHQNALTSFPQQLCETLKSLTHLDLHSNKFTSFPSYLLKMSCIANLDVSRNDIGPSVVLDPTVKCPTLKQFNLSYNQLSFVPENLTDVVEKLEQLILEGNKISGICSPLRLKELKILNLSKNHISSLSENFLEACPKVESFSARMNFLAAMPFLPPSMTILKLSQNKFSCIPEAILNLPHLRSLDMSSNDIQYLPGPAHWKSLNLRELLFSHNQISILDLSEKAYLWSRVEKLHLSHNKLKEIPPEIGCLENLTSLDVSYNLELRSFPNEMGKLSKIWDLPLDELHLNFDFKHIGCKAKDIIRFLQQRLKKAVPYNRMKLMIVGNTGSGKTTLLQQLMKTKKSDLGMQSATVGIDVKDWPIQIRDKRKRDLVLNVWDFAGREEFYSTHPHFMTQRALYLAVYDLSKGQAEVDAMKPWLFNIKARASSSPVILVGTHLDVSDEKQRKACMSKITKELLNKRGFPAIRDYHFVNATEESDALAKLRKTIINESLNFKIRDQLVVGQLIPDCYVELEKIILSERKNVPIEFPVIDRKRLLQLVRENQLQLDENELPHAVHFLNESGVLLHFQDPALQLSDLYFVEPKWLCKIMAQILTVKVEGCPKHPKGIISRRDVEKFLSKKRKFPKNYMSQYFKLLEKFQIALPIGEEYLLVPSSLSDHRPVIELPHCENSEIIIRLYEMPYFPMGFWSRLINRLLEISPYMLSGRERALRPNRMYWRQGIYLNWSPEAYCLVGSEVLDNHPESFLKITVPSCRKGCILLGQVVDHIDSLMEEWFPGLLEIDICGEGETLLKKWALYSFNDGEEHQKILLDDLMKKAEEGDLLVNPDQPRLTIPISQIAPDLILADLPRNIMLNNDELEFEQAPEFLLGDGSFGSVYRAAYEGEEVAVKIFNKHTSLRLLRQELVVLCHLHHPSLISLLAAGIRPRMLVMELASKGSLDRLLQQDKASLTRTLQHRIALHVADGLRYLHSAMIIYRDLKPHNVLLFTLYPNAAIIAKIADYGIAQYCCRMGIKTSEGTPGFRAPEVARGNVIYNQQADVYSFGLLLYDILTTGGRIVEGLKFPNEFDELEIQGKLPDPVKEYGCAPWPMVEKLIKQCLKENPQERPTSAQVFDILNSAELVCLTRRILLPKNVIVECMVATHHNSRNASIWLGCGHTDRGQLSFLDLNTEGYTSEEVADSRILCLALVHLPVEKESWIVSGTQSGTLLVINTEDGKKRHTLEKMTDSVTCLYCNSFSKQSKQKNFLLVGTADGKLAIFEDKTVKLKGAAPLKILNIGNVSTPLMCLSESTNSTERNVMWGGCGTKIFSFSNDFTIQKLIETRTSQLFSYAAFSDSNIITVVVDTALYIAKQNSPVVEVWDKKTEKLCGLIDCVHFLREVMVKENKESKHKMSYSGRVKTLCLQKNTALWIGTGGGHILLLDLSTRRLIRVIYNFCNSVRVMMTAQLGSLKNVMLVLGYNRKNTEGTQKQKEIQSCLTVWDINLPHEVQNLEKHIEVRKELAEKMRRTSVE
T1 sequence (Q5S007 970-2527 G2019S): as the sequence (Q5S007 970-2527) above, with G1050S counted along it

For `COc1cc(C(=O)NCC(C)(C)O)ccc1Nc1ncc(Cl)c(-c2cnn(C)c2)n1` [Compound 26, 4-((5-chloro-4-(1-methyl-1H-pyrazol-4-yl)pyrimidin-2-yl)amino)-N-(2-hydroxy-2-methylpropyl)-3-methoxybenzamide], the remaining binding at 0.1 µM in experiment [1] and in experiment [2] was under 50% each time.
Turning to `CCn1cc(-c2nc(Nc3ccc(C(=O)N4CCOCC4)cc3OC)ncc2Cl)cn1` [Compound 56, (4-((5-chloro-4-(1-ethyl-1H-pyrazol-4-yl)pyrimidin-2-yl)amino)-3-methoxyphenyl)(morpholino)methanone], the remaining binding at 0.1 µM in experiment [1] and in experiment [2] was under 10% throughout.
Regarding `COc1cc(C(=O)N2CCOCC2)ccc1Nc1ncc(Cl)c(-c2cccnc2)n1` [Comparative Compound 2, (4-((5-chloro-4-(pyridin-3-yl)pyrimidin-2-yl)amino)-3-methoxyphenyl) (morpholino)methanone, reference compound], the remaining binding at 0.1 µM in experiment [1] and in experiment [2] was at least 50% in each case.
With `COc1cc(C(=O)N2CC3(CCO3)C2)ccc1Nc1ncc(Cl)c(-c2cnn(C)c2)n1` [Compound 33, (4-((5-chloro-4-(1-methyl-1H-pyrazol-4-yl)pyrimidin-2-yl)amino)-3-methoxyphenyl)(1-oxa-6-azaspiro[3.3]heptan-6-yl)methanone], the remaining binding at 0.1 µM in experiment [1] was under 50%; in experiment [2] it was under 30%.
With `COc1cc(C(=O)N2CCN(C(C)=O)CC2)ccc1Nc1ncc(Cl)c(-c2cnn(C)c2)n1` [Compound 44, 1-(4-(4-((5-chloro-4-(1-methyl-1H-pyrazol-4-yl)pyrimidin-2-yl)amino)-3-methoxybenzoyl)piperazin-1-yl)ethan-1-one], the remaining binding at 0.1 µM in experiment [1] was under 30%; in experiment [2], under 10%.
`COc1cc(C(=O)N2CCOCC2)ccc1Nc1ncc(Cl)c(-c2cnn(CC#N)c2)n1` [Compound 6, 2-(4-(5-chloro-2-((2-methoxy-4-(morpholine-4-carbonyl)phenyl)amino)pyrimidin-4-yl)-1H-pyrazol-1-yl)acetonitrile]: the remaining binding at 0.1 µM in experiment [1] is under 30%; in experiment [2] it was under 50%.
Regarding `COc1cc(C(=O)N2CCOCC2)ccc1Nc1ncc(Cl)c(-c2cnn(CCC#N)c2)n1` [Compound 5, 3-(4-(5-chloro-2-((2-methoxy-4-(morpholine-4-carbonyl)phenyl)amino)pyrimidin-4-yl)-1H-pyrazol-1-yl)propanenitrile], the remaining binding at 0.1 µM in experiment [1] and in experiment [2] was under 10% each time.
In the case of `CCN(CCOC)C(=O)c1ccc(Nc2ncc(Cl)c(-c3cnn(C)c3)n2)c(OC)c1` [Compound 23, 4-((5-chloro-4-(1-methyl-1H-pyrazol-4-yl)pyrimidin-2-yl)amino)-N-ethyl-3-methoxy-N-(2-methoxyethyl)benzamide], the remaining binding at 0.1 µM in experiment [1] and in experiment [2] was under 50% each time.
As to `COc1cc(C(=O)N2CCOC(C)(C)C2)ccc1Nc1ncc(Cl)c(-c2cnn(C)c2)n1` [Compound 42, (4-((5-chloro-4-(1-methyl-1H-pyrazol-4-yl)pyrimidin-2-yl)amino)-3-methoxyphenyl)(2,2-dimethylmorpholino)methanone], the figures for the remaining binding at 0.1 µM in experiment [1] and in experiment [2] were under 50% and under 30%, respectively.
Taken in the same sequence, the figures for `COc1cc(C(=O)N2CCC(N3CCN(C)CC3)CC2)ccc1Nc1ncc(C(F)(F)F)c(-c2cnn(C)c2)n1` [Compound 31, (3-methoxy-4-((4-(1-methyl-1H-pyrazol-4-yl)-5-(trifluoromethyl)pyrimidin-2-yl)amino)phenyl)(4-(4-methylpiperazin-1-yl)piperidin-1-yl)methanone] were under 30% and under 10%.
Consider `COc1cc(C(=O)N2CCOCC2)ccc1Nc1ncc(Cl)c(-c2cnn(C(C)(C)C)c2)n1` [Compound 59, (4-((4-(1-(tert-butyl)-1H-pyrazol-4-yl)-5-chloropyrimidin-2-yl)amino)-3-methoxyphenyl)(morpholino)methanone], for which the remaining binding at 0.1 µM in experiment [1] and in experiment [2] was under 10% each time.
As to `COc1cc(C(=O)N2CCOCC2)ccc1Nc1ncc(C(F)(F)F)c(-c2cnn(C3CCOCC3)c2)n1` [Compound 29, (3-methoxy-4-((4-(1-(tetrahydro-2H-pyran-4-yl)-1H-pyrazol-4-yl)-5-(trifluoromethyl)pyrimidin-2-yl)amino)phenyl)(morpholino)methanone], the results for the remaining binding at 0.1 µM in experiment [1] and in experiment [2] were under 30% and under 50%, respectively.
For the molecule `COc1cc(C(=O)c2ccncc2)ccc1Nc1ncc(Cl)c(-c2cnn(C(C)C)c2)n1` [Compound 54, (4-((5-chloro-4-(1-isopropyl-1H-pyrazol-4-yl)pyrimidin-2-yl)amino)-3-methoxyphenyl)(pyridin-4-yl)methanone], the remaining binding at 0.1 µM is under 30% in experiment [1] and under 50% in experiment [2].
Regarding `COc1cc(C(=O)N2CCCC2)ccc1Nc1ncc(Cl)c(-c2cnn(C)c2)n1` [Compound 22, (4-((5-chloro-4-(1-methyl-1H-pyrazol-4-yl)pyrimidin-2-yl)amino)-3-methoxyphenyl)(pyrrolidin-1-yl)methanone], the remaining binding at 0.1 µM in experiment [1] is under 50%; in experiment [2], under 30%.
Consider `CCCn1cc(-c2nc(Nc3ccc(C(=O)N4CCOCC4)cc3OC)ncc2Cl)cn1` [Compound 57, (4-((5-chloro-4-(1-propyl-1H-pyrazol-4-yl)pyrimidin-2-yl)amino)-3-methoxyphenyl)(morpholino)methanone], for which the remaining binding at 0.1 µM in experiment [1] and in experiment [2] was under 10% in each case.
On to `COc1cc(C(=O)NC(C)(C)CO)ccc1Nc1ncc(Cl)c(-c2cnn(C)c2)n1` [Compound 24, 4-((5-chloro-4-(1-methyl-1H-pyrazol-4-yl)pyrimidin-2-yl)amino)-N-(1-hydroxy-2-methylpropan-2-yl)-3-methoxybenzamide], for which the remaining binding at 0.1 µM was under 50% in experiment [1] and under 30% in experiment [2].
`COc1cc(C(=O)N2CCOCC2)c(F)cc1Nc1ncc(Cl)c(-c2cnn(C(C)C)c2)n1` [Compound 49, (4-((5-chloro-4-(1-isopropyl-1H-pyrazol-4-yl)pyrimidin-2-yl)amino)-2-fluoro-5-methoxyphenyl)(morpholino)methanone]: the remaining binding at 0.1 µM in experiment [1] and in experiment [2] was under 10% throughout.
On to `COc1cc(C(=O)NC2CCN(C)CC2)ccc1Nc1ncc(Cl)c(-c2cnn(C)c2)n1` [Compound 38, 4-((5-chloro-4-(1-methyl-1H-pyrazol-4-yl)pyrimidin-2-yl)amino)-3-methoxy-N-(1-methylpiperidin-4-yl)benzamide], for which the remaining binding at 0.1 µM in experiment [1] and in experiment [2] was under 10% each time.
For the molecule `COc1cc(C(=O)N2CCC(F)(F)CC2)ccc1Nc1ncc(Cl)c(-c2cnn(C)c2)n1` [Compound 41, (4-((5-chloro-4-(1-methyl-1H-pyrazol-4-yl)pyrimidin-2-yl)amino)-3-methoxyphenyl)(4,4-difluoropiperidin-1-yl)methanone], the remaining binding at 0.1 µM was under 50% in experiment [1] and under 30% in experiment [2].
On to `COc1cc(C(=O)N2CCOCC2)ccc1Nc1ncc(Cl)c(-c2ccccc2)n1` [Comparative Compound 1, (4-((5-chloro-4-phenylpyrimidin-2-yl)amino)-3-methoxyphenyl)(morpholino)methanone, reference compound], for which the remaining binding at 0.1 µM in experiment [1] and in experiment [2] was at least 50% throughout.
For the molecule `COc1cc(C(=O)N2CCOCC2)ccc1Nc1ncc(Cl)c(-c2cnn(C3CC3)c2)n1` [Compound 58, (4-((5-chloro-4-(1-cyclopropyl-1H-pyrazol-4-yl)pyrimidin-2-yl)amino)-3-methoxyphenyl)(morpholino)methanone], the remaining binding at 0.1 µM is under 10% in experiment [1] and under 30% in experiment [2].
Take `COCCn1cc(-c2nc(Nc3ccc(C(=O)N4CCOCC4)cc3OC)ncc2Cl)cn1` [Compound 28, (4-((5-chloro-4-(1-(2-methoxyethyl)-1H-pyrazol-4-yl)pyrimidin-2-yl)amino)-3-methoxyphenyl)(morpholino)methanone]: the remaining binding at 0.1 µM in experiment [1] and in experiment [2] was under 30% in each case.
As for `COc1cc(C(=O)N2CCC(N3CCOCC3)CC2)ccc1Nc1ncc(Cl)c(-c2cnn(C)c2)n1` [Compound 2, (4-((5-chloro-4-(1-methyl-1H-pyrazol-4-yl)pyrimidin-2-yl)amino)-3-methoxyphenyl) (4-morpholinopiperidin-1-yl)methanone], the remaining binding at 0.1 µM in experiment [1] and in experiment [2] was under 10% in each case.
For the molecule `COc1cc(C(=O)N2CCOCC2)ccc1Nc1ncc(Cl)c(-c2cn[nH]c2)n1` [Compound 18, (4-((5-chloro-4-(1H-pyrazol-4-yl)pyrimidin-2-yl)amino)-3-methoxyphenyl)(morpholino)methanone], the remaining binding at 0.1 µM in experiment [1] and in experiment [2] was under 30% each time.
Take `COc1cc(C(=O)N2CCOCC2)c(F)cc1Nc1ncc(C(F)(F)F)c(-c2cnn(C)c2)n1` [Compound 46, (2-fluoro-5-methoxy-4-((4-(1-methyl-1H-pyrazol-4-yl)-5-(trifluoromethyl)pyrimidin-2-yl)amino)phenyl)(morpholino)methanone]: the remaining binding at 0.1 µM in experiment [1] and in experiment [2] was under 10% in each case.
